Values joined by “and” are separate entries in the source; they are usually repeats but may differ in a detail not shown here. Equal values may be shown once. Read-outs that look alike come from different tables or passages of the source.
What was measured:
[1] = tested on: EGFR phosphorylation (Tyr1068) in H460 cells; assay: Western blot, p-EGFR/EGFR in H460; conditions: for p-EGFR/EGFR: band density ratio; for p-EGFR/EGFR relative to DMSO: ratio normalised to DMSO
Description: (§3) We also performed western blot analysis to evaluate the impact of e4 and e12 on EGFR signaling in PC-9 and H460 cells.
(§4) H460 cells were seeded in six-well plates with serum-free medium overnight, and then treated complete medium containing 0.1% DMSO, various concentrations (0.1, 1 and 10 μM) of either compound e4 or e12 for 2 h, respectively. […] Then the H460 cells were treated with complete medium containing EGF (10 ng/ml) for 5 min. Then the cells were harvested and washed with PBS, centrifuged, resuspended in 100–200 μl of RIPA lysis buffer containing Protease and Phosphatase Inhibitor Cocktail (1X), and then centrifuged for 5 min at 12,000 rpm at 4°C. The supernatant was used for protein analysis. […] Then the membrane was washed 5 min (X3) and incubated at 1:3,000 dilution of anti-rabbit secondary antibodies or 1:1,000 dilution of anti-mouse secondary antibodies for 1 h at RT. After washing with TBST 5 min (X3), protein bands were developed by chemiluminescence. The protein levels were quantified by the gray values of the bands in the resulting images by ImageJ, and the control group was used as the standard. […] The PC-9 cells were harvested and analyzed as above.

PC-9 cells [2] = assay: Hoechst 33342 staining for cell apoptosis; assay type: cell-based, human; conditions: PC-9, various concentrations, 48 h, vs 0.1% DMSO
Description: To further verify the impact of compounds e4 and e12 on apoptosis of NSCLC cells, PC-9 cells were treated with either compound e4 or e12 at various concentrations for 48 h and then stained with dye Hoechst 33342.
PC-9 cells were seeded in 96-well plates, then treated with 0.1% DMSO (as control) or various concentrations of compound e4 or e12 for 48 h. Culture medium from the cells was removed and replaced with medium containing dye Hoechst 33342. Cells were incubated at 37°C for 5–15 min, washed with PBS twice, and then observed and imaged under the Nikon Ti-U microscope.

wild-type EGFR = wild-type EGFR (Homo sapiens, UniProt P00533); assay: EGFR kinase assay (ELISA); conditions: for A450: raw ELISA absorbance
Description: The kinase enzyme of EGFR was purchased from Carna Bioscience (Kobe, Japan). A total of 10 ng/ml anti phosphotyrosine (PY713) antibody (abcam, Cambridge Science Park, United Kingdom) was precoated in 96-well ELISA plates. […] Then, a total of 3 μmol/L ATP was added and the reaction was continued for 2 h. […] After incubation, the wells were washed with PBS and then incubated with horseradish peroxidase (HRP)-conjugated streptavidin. The wells were visualized using 3,3′,5,5′-tetramethylbenzidine (TMB), and chromogenic reaction was ended with 2 mol/L H2SO4, the absorbance was read with a multimode plate reader (PerkinElmer, United States) at 450 nm.

H460 cells [3] = assay: CCK-8 antiproliferation assay, H460; conditions: for Inhibitory efficacy: H460 cells
Description: (§5) The compounds were dissolved in DMSO to make a 20 μM stock solution and diluted to the concentration of working solutions with complete growth medium before administration.
(§6) Cells were seeded in 96-well plates: 3,000–5,000 cells/well in 100 ul. One day after seeding, the test compounds at concentration between 1.0 and 16.0 μ M or 0.1% DMSO (as control) were added to cells in triplicate. 48 h later, CCK-8 was added and incubated the plate for 1–4 h in the incubator. The absorbance at 450 nm were measured using a microplate reader (Bio-Tek).

H1975 cells = assay: CCK-8 antiproliferation assay, H1975; conditions: given as fraction, Repeat 1-3; for Inhibitory efficacy: H1975 cells
Description: as §5, §6

A549 cells = assay: CCK-8 antiproliferation assay, A549; conditions: for Inhibitory efficacy: A549 cells
PC-9 cells [4] = assay: Flow cytometry detection for cell cycle, PC-9; assay type: cell-based, human; conditions: for G0/G1 / G2/M / S: single repeats (Repeat 1-3)
Description: (§1) To investigate the effects of compounds e4 and e12 on various phases of the cell cycle, PC-9 cells were treated with compound e4 or e12 of various concentrations for 24 h, and H460 cells were treated with compound e4 or e12 of various concentrations for 12 h.
(§2) PC-9 or H460 (2 × 10^5–3 × 10^5/well) cells were seeded in six-well plates for 24 h, and then treated with 0.1% DMSO (as control), various concentrations of either compound e4 or e12 for 24 h (PC-9) or 12 h (H460), respectively. The treated cells were harvested, washed with PBS, and then stained using the cell-cycle staining kit according to the manufacturer’s manual. The distribution of cell-cycle phases with different DNA contents was determined by flow cytometry (BD LSRFortessa™ Flow Cytometer) and analyzed using ModFit LT software.

[5] = tested on: EGFR phosphorylation (Tyr1068) in PC-9 cells; assay: Western blot, p-EGFR/EGFR in PC-9; conditions: for p-EGFR/EGFR: band density ratio; for p-EGFR/EGFR relative to DMSO: ratio normalised to DMSO = 1
Description: as §3, §4

H460 cells [6] = assay: Flow cytometry detection for cell cycle, H460; assay type: cell-based, human; conditions: for G0/G1 / G2/M / S: single experiments (20200711, 20200810, 20200812)
Description: as §1, §2

[7] = 8uM, given as fraction, Repeat 1-3
[8] = 16uM, given as fraction, Repeat 1-3

wild-type EGFR, sequence (P00533 25-1210): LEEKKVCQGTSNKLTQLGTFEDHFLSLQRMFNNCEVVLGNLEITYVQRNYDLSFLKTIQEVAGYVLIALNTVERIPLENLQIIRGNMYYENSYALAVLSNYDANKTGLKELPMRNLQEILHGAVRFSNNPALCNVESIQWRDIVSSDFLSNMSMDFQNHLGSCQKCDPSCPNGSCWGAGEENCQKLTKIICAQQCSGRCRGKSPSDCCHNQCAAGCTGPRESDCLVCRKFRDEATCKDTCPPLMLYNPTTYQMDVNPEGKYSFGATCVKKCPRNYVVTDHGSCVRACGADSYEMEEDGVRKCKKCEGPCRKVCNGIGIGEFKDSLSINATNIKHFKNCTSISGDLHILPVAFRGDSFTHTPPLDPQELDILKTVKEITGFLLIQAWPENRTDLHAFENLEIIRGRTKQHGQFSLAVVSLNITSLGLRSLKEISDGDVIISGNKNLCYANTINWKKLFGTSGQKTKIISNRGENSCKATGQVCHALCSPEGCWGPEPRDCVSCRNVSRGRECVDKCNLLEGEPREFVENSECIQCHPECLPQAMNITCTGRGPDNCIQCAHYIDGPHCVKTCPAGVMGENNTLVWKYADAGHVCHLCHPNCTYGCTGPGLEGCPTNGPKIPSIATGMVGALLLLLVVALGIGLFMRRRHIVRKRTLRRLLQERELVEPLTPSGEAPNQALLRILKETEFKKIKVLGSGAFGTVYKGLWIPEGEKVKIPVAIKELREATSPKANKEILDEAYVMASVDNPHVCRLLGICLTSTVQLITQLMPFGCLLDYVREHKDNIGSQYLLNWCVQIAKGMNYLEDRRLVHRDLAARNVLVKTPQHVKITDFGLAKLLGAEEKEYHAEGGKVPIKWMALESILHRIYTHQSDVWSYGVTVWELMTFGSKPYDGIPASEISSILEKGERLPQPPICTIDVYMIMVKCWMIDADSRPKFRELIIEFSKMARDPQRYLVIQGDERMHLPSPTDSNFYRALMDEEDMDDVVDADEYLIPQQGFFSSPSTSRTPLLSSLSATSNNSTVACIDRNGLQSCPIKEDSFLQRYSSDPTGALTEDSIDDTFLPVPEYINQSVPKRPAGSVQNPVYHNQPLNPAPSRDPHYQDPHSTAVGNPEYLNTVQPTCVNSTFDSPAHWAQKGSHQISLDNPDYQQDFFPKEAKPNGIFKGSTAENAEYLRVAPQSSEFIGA

## COCCOc1cc2ncnc(Nc3cccc(-c4cn(Cc5cc(Br)cc(Br)c5)nn4)c3)c2cc1OCCOC [e4, [6,7-Bis-(2-methoxy-ethoxy)-quinazolin-4-yl]-{3-[1-(3,5-dibromo-benzyl)-1H-[1,2,3]triazol-4-yl]-phenyl}-amine]
[1]; H460, 0.1 uM
  p-EGFR/EGFR: 0.8093
  p-EGFR/EGFR relative to DMSO: 0.9725
[1]; H460, 1 uM
  p-EGFR/EGFR: 0.8837
  p-EGFR/EGFR relative to DMSO: 1.062
[1]; H460, 10 uM
  p-EGFR/EGFR: 0.3865
  p-EGFR/EGFR relative to DMSO: 0.4645
[1]; H460, especially at 10 μM
  phosphorylation of EGFR (western blot): suppressed
PC-9 cells [2]
  apoptotic morphology, Hoechst 33342 staining: exhibited features typical of apoptosis
wild-type EGFR; concentration 0.0001 nM (reference for normalisation), one value per replicate column
  inhibition at 100 fM: 0%
wild-type EGFR; concentration 0.03 nM, one value per replicate column, 3e-05 µM
  Inhibition: 0.3205 and 0.9868
wild-type EGFR; concentration 0.3 nM, one value per replicate column
  inhibition at 0.0003 µM: 8.65%
wild-type EGFR; concentration 0.3 nM, one value per replicate column, 0.0003 µM
  Inhibition: 6.25
wild-type EGFR; concentration 3 nM, one value per replicate column
  inhibition at 0.003 µM: 8.97%
wild-type EGFR; concentration 3 nM, one value per replicate column, 0.003 µM
  Inhibition: 8.553
wild-type EGFR; concentration 30 nM, one value per replicate column
  inhibition at 0.03 µM: 9.62%
wild-type EGFR; concentration 30 nM, one value per replicate column, 0.03 µM
  Inhibition: 10.8553
wild-type EGFR; concentration 300 nM, one value per replicate column
  inhibition at 0.3 µM: 10.3%
wild-type EGFR; concentration 300 nM, one value per replicate column, 0.3 µM
  Inhibition: 11.1842
wild-type EGFR; concentration 3000 nM, one value per replicate column
  inhibition at 3 µM: 13.8%
wild-type EGFR; concentration 3000 nM, one value per replicate column, 3 µM
  Inhibition: 18.75
wild-type EGFR; concentration 30000 nM, one value per replicate column
  inhibition at 30 µM: 70.2%
wild-type EGFR; concentration 30000 nM, one value per replicate column, 30 µM
  Inhibition: 70.7237
wild-type EGFR; concentration 0.0001 nM
  A450: 0.554 and 0.551
wild-type EGFR; concentration 0.03 nM
  A450: 0.553 and 0.548
wild-type EGFR; concentration 0.3 nM
  A450: 0.527 and 0.532
wild-type EGFR; concentration 3 nM
  A450: 0.526 and 0.525
wild-type EGFR; concentration 30 nM
  A450: 0.524 and 0.518
wild-type EGFR; concentration 300 nM
  A450: 0.522 and 0.517
wild-type EGFR; concentration 3000 nM
  A450: 0.511 and 0.494
wild-type EGFR; concentration 30000 nM
  A450: 0.335 and 0.336
wild-type EGFR; read-out: IC50 (μM) EGFR, ELISA, 3 μmol/L ATP
  IC50: 13 µM
H460 cells [3]; 1uM, given as fraction, Repeat 1-3
  Inhibitory efficacy: 0.09927 and 0.1204
H460 cells [3]; 2uM, given as fraction, Repeat 1-3
  Inhibitory efficacy: 0.08541 and 0.1118
H460 cells [3]; [7]
  Inhibitory efficacy: 0.8422 and 0.8158
H460 cells [3]; [8]
  Inhibitory efficacy: 0.9425 and 0.965
H460 cells [3]; Homo sapiens, NCI-H460, 48 h, read-out: IC50 (μM) H460, CCK-8, 48 h, average ± SD of three independent experiments
  IC50: < 10 µM
H460 cells [3]; Homo sapiens, NCI-H460, read-out: Inhibitory efficacy, H460 cells, 1uM, given as fraction, Repeat 1-3
  inhibition at 1 µM: 19.4%
H460 cells [3]; Homo sapiens, NCI-H460, read-out: Inhibitory efficacy, H460 cells, 2uM, given as fraction, Repeat 1-3
  inhibition at 2 µM: 16.7%
H460 cells [3]; Homo sapiens, NCI-H460, read-out: Inhibitory efficacy, H460 cells, 8uM, given as fraction, Repeat 1-3
  inhibition at 8 µM: 79.5%
H460 cells [3]; Homo sapiens, NCI-H460, read-out: Inhibitory efficacy, H460 cells, 16uM, given as fraction, Repeat 1-3
  inhibition at 16 µM: 95%
H460 cells [3]; read-out: IC50 (μM) H460, CCK-8, 48 h, average ± SD of three independent experiments
  IC50: 5.18 ± 0.78 µM
H1975 cells; 2uM
  Inhibitory efficacy: 0.363 and 0.4168
H1975 cells; 4uM
  Inhibitory efficacy: 0.3676 and 0.4565
H1975 cells; 8uM
  Inhibitory efficacy: 0.9443
H1975 cells; 16uM
  Inhibitory efficacy: 0.9548 and 0.9653
H1975 cells; Homo sapiens, NCI-H1975, read-out: Inhibitory efficacy, H1975 cells, 2uM
  inhibition at 2 µM: 30.2%
H1975 cells; Homo sapiens, NCI-H1975, read-out: Inhibitory efficacy, H1975 cells, 4uM
  inhibition at 4 µM: 39.3%
H1975 cells; Homo sapiens, NCI-H1975, read-out: Inhibitory efficacy, H1975 cells, 8uM
  inhibition at 8 µM: 92.2%
H1975 cells; Homo sapiens, NCI-H1975, read-out: Inhibitory efficacy, H1975 cells, 16uM
  inhibition at 16 µM: 96.1%
A549 cells; 4uM, given as fraction, Repeat 1-3
  Inhibitory efficacy: 0.2144 and 0.2227
A549 cells; [7]
  Inhibitory efficacy: 0.7075 and 0.6166
A549 cells; [8]
  Inhibitory efficacy: 0.9444 and 0.9355
A549 cells; Homo sapiens, A549, 48 h, read-out: IC50 (μM) A549, CCK-8, 48 h, average ± SD of three independent experiments
  IC50: < 10 µM
A549 cells; Homo sapiens, A549, read-out: Inhibitory efficacy, A549 cells, 4uM, given as fraction, Repeat 1-3
  inhibition at 4 µM: 35.6%
A549 cells; Homo sapiens, A549, read-out: Inhibitory efficacy, A549 cells, 8uM, given as fraction, Repeat 1-3
  inhibition at 8 µM: 75.6%
A549 cells; Homo sapiens, A549, read-out: Inhibitory efficacy, A549 cells, 16uM, given as fraction, Repeat 1-3
  inhibition at 16 µM: 94.8%
A549 cells; read-out: IC50 (μM) A549, CCK-8, 48 h, average ± SD of three independent experiments
  IC50: 5.8 ± 0.78 µM
PC-9 cells [4]; PC-9, 4uM
  G0/G1: 48.12 and 48.79 and 52.62
  G2/M: 15.27 and 15.42 and 15.56
  S: 36.61 and 35.79 and 31.83
PC-9 cells [4]; PC-9, 8uM
  G0/G1: 53.18 and 53.63 and 55.05
  G2/M: 16.92 and 17.15 and 16.88
  S: 29.9 and 29.22 and 28.08
PC-9 cells [4]; PC-9, 12uM
  G0/G1: 60.53 and 62.02 and 63.46
  G2/M: 23.33 and 22.27 and 17.86
  S: 16.14 and 15.71 and 18.68
PC-9 cells [4]; PC-9, various concentrations, 24 h
  percentage of cells in the G0/G1 phase: induced higher percentages
[5]; PC-9, 0.1 uM
  p-EGFR/EGFR: 0.3318
  p-EGFR/EGFR relative to DMSO: 0.2965
[5]; PC-9, 1 uM
  p-EGFR/EGFR: 0.2248
  p-EGFR/EGFR relative to DMSO: 0.2009
[5]; PC-9, 10 uM
  p-EGFR/EGFR: 0.5115
  p-EGFR/EGFR relative to DMSO: 0.4571
[5]; PC-9, especially at 10 μM
  phosphorylation of EGFR (western blot): suppressed
H460 cells [6]; H460, 4uM
  G0/G1: 42.32% and 41.29% and 53.43%
  G2/M: 16.95% and 17.5% and 12.27%
  S: 40.73% and 41.21% and 34.3%
H460 cells [6]; H460, 8uM
  G0/G1: 48.11% and 44.75% and 59.66%
  G2/M: 16.79% and 18.81% and 11.77%
  S: 35.11% and 36.45% and 28.56%
H460 cells [6]; H460, 12uM
  G0/G1: 48.29% and 43.3% and 54.65%
  G2/M: 17.85% and 18.86% and 13.72%
  S: 33.86% and 38.02% and 31.63%
H460 cells [6]; H460, various concentrations, 12 h
  percentage of cells in the G0/G1 phase: induced higher percentages

Source: paper PMC8776995 (Frontiers in Chemistry, 2022)
